Patent US7851474B2, “Dipiperazinyl ketones and related analogues” (Neurogen Corporation, priority 2005, dated 2010)
Where two headings read alike, the source gives them in different places.

Target: T1, chimeric human H3 receptor (Homo sapiens, UniProt Q9Y5N1, E19D)
T1 construct: made in house; host or cells: Sf9 insect cells (baculovirus infection); P2 membrane preparation
Assay: Chimeric human H3 receptor GTP binding assay (agonist-stimulated GTP-gamma35S binding, Example 7)
Assay type: biochemical
Summary of the method: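 IC50 values come from non-linear regression of dose-response curves of filter-bound GTP-gamma^35S, counted by scintillation. Membranes were from infected Sf9 cells carrying receptor plus G-protein subunits, 35 μg/tube, with 10 μM GDP present.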

[1] = assay of Example 7, "*" in Ki of Table II, read-out: Ki
[2] = Table II "Ki", symbol "*": Ki in the assay of Example 7, read-out: Ki
[3] = Table II, assay of Example 7, "*" in Ki, read-out: Ki
[4] = "*" in Ki of Table II, assay of Example 7, read-out: Ki
[5] = assay of Example 7, symbol * in column headed Ki of Table II, read-out: Ki
[6] = Table II, "*" in Ki, assay of Example 7, read-out: Ki

T1 sequence (Q9Y5N1 with tags, fused parts or gaps E19D): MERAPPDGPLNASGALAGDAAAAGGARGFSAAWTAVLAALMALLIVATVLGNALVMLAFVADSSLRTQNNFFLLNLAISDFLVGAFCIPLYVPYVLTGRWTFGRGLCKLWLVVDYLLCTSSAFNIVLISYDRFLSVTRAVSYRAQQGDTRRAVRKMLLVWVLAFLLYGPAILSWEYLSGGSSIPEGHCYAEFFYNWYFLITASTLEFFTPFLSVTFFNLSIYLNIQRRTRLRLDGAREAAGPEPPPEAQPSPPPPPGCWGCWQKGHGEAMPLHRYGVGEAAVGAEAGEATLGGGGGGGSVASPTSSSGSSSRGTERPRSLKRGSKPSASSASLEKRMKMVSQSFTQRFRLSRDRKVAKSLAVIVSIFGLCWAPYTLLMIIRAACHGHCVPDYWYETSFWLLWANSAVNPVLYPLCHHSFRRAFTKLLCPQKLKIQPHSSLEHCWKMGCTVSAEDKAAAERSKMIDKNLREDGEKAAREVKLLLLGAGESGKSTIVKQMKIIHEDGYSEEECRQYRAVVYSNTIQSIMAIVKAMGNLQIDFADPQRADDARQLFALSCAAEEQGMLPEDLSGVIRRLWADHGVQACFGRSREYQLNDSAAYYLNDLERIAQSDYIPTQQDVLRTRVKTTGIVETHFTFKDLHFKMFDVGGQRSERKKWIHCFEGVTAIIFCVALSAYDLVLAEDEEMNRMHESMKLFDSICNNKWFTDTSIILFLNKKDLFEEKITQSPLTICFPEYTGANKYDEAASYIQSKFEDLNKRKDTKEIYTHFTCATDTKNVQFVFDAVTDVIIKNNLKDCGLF

SMILES: CCC(C)NC(=O)c1ccc(N2CCN(CC(=O)N3CCN(C4CCC4)CC3)CC2)nc1 (stereo not drawn) [Compound 1205, N-(sec-butyl)-6-{4-[2-(4-cyclobutylpiperazin-1-yl)-2-oxoethyl]piperazin-1-yl}nicotinamide]
- Ki [1]: < 1000 nM

SMILES: O=C(CN1CCN(c2cnc(-c3ccncc3)cn2)CC1)N1CCN(C2CCC2)CC1 [Compound 917, 2-{4-[2-(4-cyclobutylpiperazin-1-yl)-2-oxoethyl]piperazin-1-yl}-5-pyridin-4-ylpyrazine]
- Ki [2]: < 1000 nM

SMILES: O=C(CN1CCN(c2cnc(-c3cc(Cl)cc(Cl)c3)cn2)CC1)N1CCN(C2CCC2)CC1 [Compound 963, 2-{4-[2-(4-cyclobutylpiperazin-1-yl)-2-oxoethyl]piperazin-1-yl}-5-(3,5-dichlorophenyl)pyrazine]
- Ki [3]: < 1000 nM

SMILES: COc1ccc(-c2ccc(-c3ccc(N4CCN(CC(=O)N5CCN(C6CCC6)CC5)CC4)nn3)cc2)cc1 [Compound 1026, 3-{4-[2-(4-cyclobutylpiperazin-1-yl)-2-oxoethyl]piperazin-1-yl}-6-(4′-methoxybiphenyl-4-yl)pyridazine]
- Ki [3]: < 1000 nM

SMILES: O=C(CN1CCN(c2ccc(F)c(C(F)(F)F)c2)CC1)N1CCN(C2CCCC2)CC1 [Compound 830, 1-cyclopentyl-4-({4-[4-fluoro-3-(trifluoromethyl)phenyl]piperazin-1-yl}acetyl)piperazine]
- Ki: < 1000 nM

SMILES: O=C(CN1CCN(c2ccc(S(=O)(=O)Cc3ccccc3)cc2)CC1)N1CCN(C2CCC2)CC1 [Compound 460, 1-[4-(benzylsulfonyl)phenyl]-4-[2-(4-cyclobutylpiperazin-1-yl)-2-oxoethyl]piperazine]
- Ki [4]: < 1000 nM

SMILES: COc1cc(N2CCN(CC(=O)N3CCN(C4CCC4)CC3)CC2)ccc1Cl [Compound 344, 1-(4-chloro-3-methoxyphenyl)-4-[2-(4-cyclobutylpiperazin-1-yl)-2-oxoethyl]piperazine]
- Ki [5]: < 1000 nM

SMILES: COc1ccc(-c2cnc(N3CCN(CC(=O)N4CCN(C5CCC5)CC4)CC3)cn2)c(OC)c1 [Compound 954, 2-{4-[2-(4-cyclobutylpiperazin-1-yl)-2-oxoethyl]piperazin-1-yl}-5-(2,4-dimethoxyphenyl) pyrazine]
- Ki [3]: < 1000 nM

SMILES: COc1ccc(-c2cnc(N3CCN(CC(=O)N4CCN(C5CCC5)CC4)CC3)cn2)cc1 [Compound 944, 2-{4-[2-(4-cyclobutylpiperazin-1-yl)-2-oxoethyl]piperazin-1-yl}-5-(4-methoxyphenyl)pyrazine]
- Ki [3]: < 1000 nM

SMILES: O=C(CN1CCN(c2nc3ccccc3n2Cc2ccc(F)cc2)CC1)N1CCN(C2CCC2)CC1 [Compound 915, 2-{4-[2-(4-cyclobutylpiperazin-1-yl)-2-oxoethyl]piperazin-1-yl}-1-(4-fluorobenzyl)-1H-benzimidazole]
- Ki [2]: < 1000 nM

SMILES: O=C(CN1CCN(c2cnc(-c3ccc(C(F)(F)F)cc3)cn2)CC1)N1CCN(C2CCC2)CC1 [Compound 975, 2-{4-[2-(4-cyclobutylpiperazin-1-yl)-2-oxoethyl]piperazin-1-yl}-5-[4-(trifluoromethyl)phenyl] pyrazine]
- Ki [3]: < 1000 nM

SMILES: Cc1ccc(-c2ccc(N3CCN(CC(=O)N4CCN(C5CCC5)CC4)CC3)nn2)cc1C [Compound 1015, 3-{4-[2-(4-cyclobutylpiperazin-1-yl)-2-oxoethyl]piperazin-1-yl}-6-(3,4-dimethylphenyl) pyridazine]
- Ki [3]: < 1000 nM

SMILES: COc1cc(C(C)=O)ccc1N1CCN(CC(=O)N2CCN(C3CCC3)CC2)CC1 [Compound 319, 1-(4-{4-[2-(4-cyclobutylpiperazin-1-yl)-2-oxoethyl]piperazin-1-yl}-3-methoxyphenyl)ethanone]
- Ki [5]: < 1000 nM

SMILES: C=CCN1CCN(C(=O)CN2CCN(c3ccc(OC)cc3)C(C)C2)CC1 (stereo not drawn) [Compound 1102, 4-[2-(4-allylpiperazin-1-yl)-2-oxoethyl]-1-(4-methoxyphenyl)-2-methylpiperazine]
- Ki [3]: < 1000 nM

SMILES: CCOc1ccccc1-c1ccc(N2CCN(CC(=O)N3CCN(C4CCC4)CC3)CC2)cc1 [Compound 700, 1-cyclobutyl-4-{[4-(2′-ethoxybiphenyl-4-yl)piperazin-1-yl]acetyl}piperazine]
- Ki [6]: < 1000 nM

SMILES: Cc1cc(C)c(-c2ccc(N3CCN(CC(=O)N4CCN(C5CCC5)CC4)CC3)cc2)c(C)c1 [Compound 673, 1-cyclobutyl-4-{[4-(2′,4′,6′-trimethylbiphenyl-4-yl)piperazin-1-yl]acetyl}piperazine]
- Ki [6]: < 1000 nM

SMILES: O=C(CN1CCN(c2ccc(Cl)c(C(F)(F)F)c2)CC1)N1CCN(C2CCCC2)CC1 [Compound 466, 1-[4-chloro-3-(trifluoromethyl)phenyl]-4-[2-(4-cyclopentylpiperazin-1-yl)-2-oxoethyl]piperazine]
- Ki [4]: < 1000 nM

SMILES: CC(C)Oc1cccc(-c2cnc(N3CCN(CC(=O)N4CCN(C5CCC5)CC4)CC3)cn2)c1 [Compound 942, 2-{4-[2-(4-cyclobutylpiperazin-1-yl)-2-oxoethyl]piperazin-1-yl}-5-(3-isopropoxyphenyl) pyrazine]
- Ki [3]: < 1000 nM

SMILES: O=C(CN1CCN(c2ccc(Cl)cc2)CC1)N1CCN(C2CCC2)CC1 [Compound 356]
- Ki [5]: < 1000 nM

SMILES: O=C(NC1CCCCC1)c1ccc(N2CCN(CC(=O)N3CCN(C4CCC4)CC3)CC2)cc1 [Compound 1139, 4-{4-[2-(4-cyclobutylpiperazin-1-yl)-2-oxoethyl]piperazin-1-yl}-N-cyclohexylbenzamide]
- Ki [1]: < 1000 nM

SMILES: O=C(NC1CCN(CC(=O)N2CCN(C3CCC3)CC2)CC1)C1CCCCC1 [Compound 1227, N-{1-[2-(4-cyclobutylpiperazin-1-yl)-2-oxoethyl]piperidin-4-yl} cyclohexanecarboxamide]
- Ki [1]: < 1000 nM

SMILES: O=C(CN1CCN(c2ccc(C(F)(F)F)cc2)CC1)N1CCN(C2CCCCC2)CC1 [Compound 803, 1-cyclohexyl-4-({4-[4-(trifluoromethyl)phenyl]piperazin-1-yl}acetyl)piperazine]
- Ki: < 1000 nM

SMILES: CCOc1ccc(-c2ccc(N3CCN(CC(=O)N4CCN(C5CCC5)CC4)CC3)nn2)cc1 [Compound 1034, 3-{4-[2-(4-cyclobutylpiperazin-1-yl)-2-oxoethyl]piperazin-1-yl}-6-(4-ethoxyphenyl)pyridazine]
- Ki [3]: < 1000 nM

SMILES: CC(C)(C)CC(=O)NC1CCN(CC(=O)N2CCN(C3CCC3)CC2)C1 (stereo not drawn) [Compound 1252, N-{1-[2-(4-cyclobutylpiperazin-1-yl)-2-oxoethyl]pyrrolidin-3-yl}-3,3-dimethylbutanamide]
- Ki [1]: < 1000 nM

SMILES: O=C(CC1CCCC1)NC1CCN(CC(=O)N2CCN(C3CCC3)CC2)CC1 [Compound 1208, N-{1-[2-(4-cyclobutylpiperazin-1-yl)-2-oxoethyl]piperidin-4-yl}-2-cyclopentylacetamide]
- Ki [1]: < 1000 nM

SMILES: CC(C)c1ccc(-c2ccc(N3CCN(CC(=O)N4CCN(C5CCC5)CC4)CC3)nn2)cc1 [Compound 1014, 3-{4-[2-(4-cyclobutylpiperazin-1-yl)-2-oxoethyl]piperazin-1-yl}-6-(4-isopropylphenyl) pyridazine]
- Ki [3]: < 1000 nM

SMILES: CC(=O)c1ccc(N2C[C@@H](C)N(CC(=O)N3CCN(C4CCC4)CC3)[C@@H](C)C2)cc1 [Compound 1270, rel-1-(4-{(3R,5S)-4-[2-(4-cyclobutylpiperazin-1-yl)-2-oxoethyl]-3,5-dimethylpiperazin-1-yl}phenyl)ethanone]
- Ki [1]: < 1000 nM

SMILES: CC1CN(C(=O)c2cccc(N3CCN(CC(=O)N4CCN(C5CCC5)CC4)CC3)c2)CC(C)O1 (stereo not drawn) [Compound 1092, 4-(3-{4-[2-(4-cyclobutylpiperazin-1-yl)-2-oxoethyl]piperazin-1-yl}benzoyl)-2,6-dimethylmorpholine]
- Ki [3]: < 1000 nM

SMILES: O=C(CN1CCN(C(=O)C2CCCO2)CC1)N1CCN(C2CCC2)CC1 (stereo not drawn) [Compound 801, 1-cyclobutyl-4-{[4-(tetrahydrofuran-2-ylcarbonyl)piperazin-1-yl]acetyl}piperazine]
- Ki [2]: < 1000 nM

SMILES: CCCNC(=O)c1ccc(N2CCN(CC(=O)N3CCN(C4CCC4)CC3)CC2)cc1 [Compound 1132, 4-{4-[2-(4-cyclobutylpiperazin-1-yl)-2-oxoethyl]piperazin-1-yl}-N-propylbenzamide]
- Ki [3]: < 1000 nM

SMILES: CCc1ccc(-c2ccc(N3CCN(CC(=O)N4CCN(C5CCC5)CC4)CC3)nn2)cc1 [Compound 1017, 3-{4-[2-(4-cyclobutylpiperazin-1-yl)-2-oxoethyl]piperazin-1-yl}-6-(4-ethylphenyl)pyridazine]
- Ki [3]: < 1000 nM

SMILES: CC(=O)c1cnc(N2CCN(CC(=O)N3CCN(C4CCC4)CC3)CC2)nc1 [Compound 269, 1-(2-{4-[2-(4-cyclobutylpiperazin-1-yl)-2-oxoethyl]piperazin-1-yl}pyrimidin-5-yl)ethanone]
- Ki [5]: < 1000 nM

SMILES: O=C(NC1CCN(CC(=O)N2CCN(C3CCC3)CC2)C1)c1ccc(Oc2ccccc2)cc1 (stereo not drawn) [Compound 1244, N-{1-[2-(4-cyclobutylpiperazin-1-yl)-2-oxoethyl]pyrrolidin-3-yl}-4-phenoxybenzamide]
- Ki [1]: < 1000 nM

SMILES: O=C(NCC1CC1)c1ccc(N2CCN(CC(=O)N3CCN(C4CCC4)CC3)CC2)cc1 [Compound 1133, 4-{4-[2-(4-cyclobutylpiperazin-1-yl)-2-oxoethyl]piperazin-1-yl}-N-(cyclopropylmethyl) benzamide]
- Ki [3]: < 1000 nM

SMILES: O=C(CN1CCN(c2ccc(-c3cccc(Cl)c3Cl)cc2)CC1)N1CCN(C2CCC2)CC1 [Compound 665, 1-cyclobutyl-4-{[4-(2′,3′-dichlorobiphenyl-4-yl)piperazin-1-yl]acetyl}piperazine]
- Ki [6]: < 1000 nM

SMILES: Cc1cc(-c2ccc(N3CCN(CC(=O)N4CCN(C5CCC5)CC4)CC3)nn2)ccc1F [Compound 1010, 3-{4-[2-(4-cyclobutylpiperazin-1-yl)-2-oxoethyl]piperazin-1-yl}-6-(4-fluoro-3-methylphenyl)pyridazine]
- Ki [3]: < 1000 nM
